Tests used:
[1] = biological target: Muscarinic acetylcholine receptor; assay: Ability to inhibit [3H]quinuclidinyl benzilate(QNB) binding in rat cerebral cortex, activity expressed as IC50.; assay type: tissue-based
[2] = biological target: Muscarinic acetylcholine receptor (Rattus norvegicus) (UniProt P08482+P08483+P08485+P08911+P10980); assay: Ratio of IC50 values for inhibition of QNB and OXO-M was measured for efficacy of the compound
[3] = biological target: Muscarinic acetylcholine receptor; assay: Ability to inhibit [3H]oxotremorine-M (OXO-M) binding in rat cerebral cortex; assay type: tissue-based

Row | SMILES | IC50 [1] [nM] | Ratio [2] | IC50 [3] [nM]
1 | Cc1nncc([C@H]2CN3CC[C@H]2C3)n1 | 410 | 105 | 3.9
2 | CCc1nncc([C@H]2CN3CC[C@H]2C3)n1 | 410 | 9 | 46
3 | Cc1nncc(C23CCN(CC2)C3)n1 | 4100 | 59 | 70
4 | Nc1nncc([C@H]2CN3CC[C@H]2C3)n1 | 990 | 460 | 2.1
5 | c1nncc([C@H]2CN3CC[C@H]2C3)n1 | 1400 | 370 | 3.8
6 | COc1nncc([C@H]2CN3CC[C@H]2C3)n1 | 2400 | 17 | 140
7 | Cc1nncc(C23CCCN(CC2)C3)n1 (stereo not given) | 1800 | 55 | 33
8 | Cc1noc([C@H]2CN3CC[C@H]2C3)n1 | 1000 | 360 | 2.8
9 | Cc1nncc(C2CN3CCC2CC3)n1 (stereo not given) | 225 | 56 | 4
10 | CSc1nncc([C@H]2CN3CC[C@H]2C3)n1 | 1300 | 4.5 | 290
